From the supplement of paper PMC11451515

Experiments:
Details in all cases: 48 h
[1] = tested on: P12-Ichikawa; test: AUC of viability dose-response curve (% viability x log10 dose units); higher = less sensitive
How it was run: (§1)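 Area under the curve was integrated by trapezoidal rule from a log-logistic fit of normalised viability, with curves exceeding full viability scaled and quality-control failures removed. The fit had four parameters over log10 doses. Viability came from CellTiter-Glo One luminescence, normalised per plate to DMSO and cell-free wells, after leukemia cells adapted to each medium (500 or 1000 cells/well, 1536-well plates) were exposed to library compounds in DMSO for 48 h at 37°C. The 11 threefold doses ran from 47 μM to 0.79 nM.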

[2] = tested on: NOMO1; test: as above
How it was run: as §1

[3] = tested on: SEM cells; test: as above
How it was run: as §1

[4] = tested on: P12-Ichikawa; test: cell viability relative to DMSO control; higher = less cytotoxic
How it was run: (§2)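 NOMO1 or SEM cells were plated at 500 cells/well and P12-Ichikawa cells at 1000 cells/well in 1536-well plates (5 μl), after each leukemia line had been adapted for at least four passages in each medium. Pin dosing delivered library compounds in DMSO at 11 threefold concentrations, 47 μM to 0.79 nM. CellTiter-Glo One luminescence was read after 48 h at 37°C. Viability is reported as a per-plate percentage of DMSO wells, with cell-free wells as background.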

[5] = tested on: NOMO1; test: as above
How it was run: as §2

[6] = tested on: SEM cells; test: as above
How it was run: as §2

ClC1=CC\2=C(OC3=C(C=CC=C3)\N=C2N4CCNCC4)C=C1
AUC of viability dose-response curve
Details	[1]	[2]	[3]
HPLM + 10% dialyzed FBS	468	450	466
RPMI 5 mM glucose + 10% FBS	438	434	437
RPMI 5 mM glucose + 10% dialyzed FBS	462	437	467

cell viability [%]
Details	[4]	[5]	[6]
HPLM + 10% dialyzed FBS, 0.000781 µM	100	106	110
HPLM + 10% dialyzed FBS, 0.00234 µM	104	111	90.9
HPLM + 10% dialyzed FBS, 0.00702 µM	113	106	114
HPLM + 10% dialyzed FBS, 0.0211 µM	103	94.5	108
HPLM + 10% dialyzed FBS, 0.0632 µM	109	105	117
HPLM + 10% dialyzed FBS, 0.19 µM	101	103	116
HPLM + 10% dialyzed FBS, 0.569 µM	107	118	112
HPLM + 10% dialyzed FBS, 1.71 µM	109	91.1	105
HPLM + 10% dialyzed FBS, 5.12 µM	99.7	91.7	119
HPLM + 10% dialyzed FBS, 15.4 µM	98	83.3	95.2
HPLM + 10% dialyzed FBS, 46.1 µM	95.5	90.7	89
RPMI 5 mM glucose + 10% FBS, 0.000781 µM	103	87	94.5
RPMI 5 mM glucose + 10% FBS, 0.00234 µM	105	90.1	49.6
RPMI 5 mM glucose + 10% FBS, 0.00702 µM	107	95.9	95
RPMI 5 mM glucose + 10% FBS, 0.0211 µM	105	94.8	90.4
RPMI 5 mM glucose + 10% FBS, 0.0632 µM	93.8	88.7	94.1
RPMI 5 mM glucose + 10% FBS, 0.19 µM	90.6	101	93.3
RPMI 5 mM glucose + 10% FBS, 0.569 µM	99.6	100	103
RPMI 5 mM glucose + 10% FBS, 1.71 µM	95.2	87.7	99.7
RPMI 5 mM glucose + 10% FBS, 5.12 µM	90.3	86.5	104
RPMI 5 mM glucose + 10% FBS, 15.4 µM	87.7	83.7	89.3
RPMI 5 mM glucose + 10% FBS, 46.1 µM	87.8	84	86.8
RPMI 5 mM glucose + 10% dialyzed FBS, 0.000781 µM	100	101	104
RPMI 5 mM glucose + 10% dialyzed FBS, 0.00234 µM	102	84	80.1
RPMI 5 mM glucose + 10% dialyzed FBS, 0.00702 µM	100	94.3	113
RPMI 5 mM glucose + 10% dialyzed FBS, 0.0211 µM	104	91.1	106
RPMI 5 mM glucose + 10% dialyzed FBS, 0.0632 µM	99.3	92.1	117
RPMI 5 mM glucose + 10% dialyzed FBS, 0.19 µM	99.7	90.7	105
RPMI 5 mM glucose + 10% dialyzed FBS, 0.569 µM	99.1	93.3	111
RPMI 5 mM glucose + 10% dialyzed FBS, 1.71 µM	92.5	90.6	107
RPMI 5 mM glucose + 10% dialyzed FBS, 5.12 µM	89.3	90.7	119
RPMI 5 mM glucose + 10% dialyzed FBS, 15.4 µM	98.3	88.4	103
RPMI 5 mM glucose + 10% dialyzed FBS, 46.1 µM	88.6	91.1	91

NC(=O)c1cccc2nc(-c3ccc([C@H]4CCCN4)cc3F)[nH]c12
AUC of viability dose-response curve
Details	[1]	[2]	[3]
HPLM + 10% dialyzed FBS	463	464	398
RPMI 5 mM glucose + 10% FBS	466	472	363
RPMI 5 mM glucose + 10% dialyzed FBS	465	466	362

cell viability [%]
Details	[4]	[5]	[6]
HPLM + 10% dialyzed FBS, 0.000781 µM	99.9	112	86.3
HPLM + 10% dialyzed FBS, 0.00234 µM	110	120	93.6
HPLM + 10% dialyzed FBS, 0.00702 µM	105	108	116
HPLM + 10% dialyzed FBS, 0.0211 µM	114	133	113
HPLM + 10% dialyzed FBS, 0.0632 µM	115	116	113
HPLM + 10% dialyzed FBS, 0.19 µM	111	131	110
HPLM + 10% dialyzed FBS, 0.569 µM	120	128	109
HPLM + 10% dialyzed FBS, 1.71 µM	114	106	86.9
HPLM + 10% dialyzed FBS, 5.12 µM	105	119	61.6
HPLM + 10% dialyzed FBS, 15.4 µM	95.8	107	39.8
HPLM + 10% dialyzed FBS, 46.1 µM	84.2	81.5	21.8
RPMI 5 mM glucose + 10% FBS, 0.000781 µM	97	95.8	81.3
RPMI 5 mM glucose + 10% FBS, 0.00234 µM	97.6	95.4	80.4
RPMI 5 mM glucose + 10% FBS, 0.00702 µM	100	104	103
RPMI 5 mM glucose + 10% FBS, 0.0211 µM	105	114	93.7
RPMI 5 mM glucose + 10% FBS, 0.0632 µM	114	125	98.6
RPMI 5 mM glucose + 10% FBS, 0.19 µM	113	107	97.9
RPMI 5 mM glucose + 10% FBS, 0.569 µM	123	117	98.3
RPMI 5 mM glucose + 10% FBS, 1.71 µM	112	107	70.4
RPMI 5 mM glucose + 10% FBS, 5.12 µM	109	101	45.9
RPMI 5 mM glucose + 10% FBS, 15.4 µM	103	105	31.8
RPMI 5 mM glucose + 10% FBS, 46.1 µM	70.1	89.6	15.3
RPMI 5 mM glucose + 10% dialyzed FBS, 0.000781 µM	99.5	102	86.2
RPMI 5 mM glucose + 10% dialyzed FBS, 0.00234 µM	105	112	103
RPMI 5 mM glucose + 10% dialyzed FBS, 0.00702 µM	110	117	111
RPMI 5 mM glucose + 10% dialyzed FBS, 0.0211 µM	119	121	85.7
RPMI 5 mM glucose + 10% dialyzed FBS, 0.0632 µM	109	118	87.8
RPMI 5 mM glucose + 10% dialyzed FBS, 0.19 µM	119	114	109
RPMI 5 mM glucose + 10% dialyzed FBS, 0.569 µM	121	132	93.1
RPMI 5 mM glucose + 10% dialyzed FBS, 1.71 µM	116	130	64.8
RPMI 5 mM glucose + 10% dialyzed FBS, 5.12 µM	120	120	36.3
RPMI 5 mM glucose + 10% dialyzed FBS, 15.4 µM	107	109	29.6
RPMI 5 mM glucose + 10% dialyzed FBS, 46.1 µM	65.1	81.3	9
